Among the data in article PMC5190074, “BET inhibition as a new strategy for the treatment of gastric cancer” (Oncotarget, 2016) are ΔTm values, retold here.

Each structure is given as a SMILES string.

The test deals with T1, BRD4(1), first bromodomain of BRD4 (Homo sapiens, UniProt O60885).
T1 construct: first bromodomain; BRD4_HUMAN O60884-1 fragment 44-168 (crystallography)
The experiment in a line: biochemical. Set-up: thermal shift assay, SAR of isoxazole compounds against BRD4(1). To be noted: read-out: ΔTm Shift (oC). Here is the method:
The recombinant bromodomains at 2 μM were mixed with 10 μM inhibitors. The assays and data evaluation for melting temperatures were performed using a Real-Time PCR Mx3005p machine (Stratagene) and the protocols previously described. Experiments profiling the final compound (PNZ5) were performed in quadruplicates. Isoxazoles have been explored previously as BET bromodomain inhibitors. We have developed PNZ5, a new isoxazole-based inhibitor originating from the lead compound S1 (Figure 1). PNZ5 was developed as the result of a structure-based lead optimisation program. Dihydroindene S1 was identified as a ligand against BRD4(1) (pIC50 5.9). Investigation of the co-crystal structure of S1 with BRD4(1) [PDB ID 4GPJ] identified a number of positions for potential optimisation: addition of a carbonyl group at C-3 was envisaged to benefit from hydrogen-bonds (H-bonds) to a network of conserved water molecules; replacement of C-2 with a nitrogen would minimise interactions in the narrow ZA channel of BRD4(1) and N-substitution could provide further binding interactions with the protein; and alternative substitution of the hydroxyl at C-1 would provide a handle for further optimisation. […] The three best compounds, S3, S5 and S7, were destined to be separated into their component enantiomers for further evaluation (Supplementary Table 2). […]

Consider `Cc1noc(C)c1-c1ccc2c(c1)C(c1ccccc1)N(C)C2=O` (racemic) [S3], for which the ΔTm at 10 µM amounted to 10.1 °C.
